Measurements from publication PMC9000575, “Solution Equilibrium Studies on Salicylidene Aminoguanidine Schiff Base Metal Complexes: Impact of the Hybridization with L-Proline on Stability, Redox Activity and Cytotoxicity” (Molecules, 2022).

Experiments:
[1] = test system: Colo-205 human colon adenocarcinoma cells; experiment: MTT cytotoxicity test; format: cell-based; details: Homo sapiens, Colo-205, 72 h
Experimental: (§1) All cell culture reagents were obtained from Sigma-Aldrich and plastic ware from Sarstedt (Nümbrecht, Germany). Human colon Colo-205 (chemo-sensitive) and Colo-320 (doxorubicin-resistant) adenocarcinoma and MRC-5 human embryonal lung fibroblast cell lines were purchased from LGC Promochem, Teddington, UK. The colon adenocarcinoma cells were cultured in Roswell Park Memorial Institute (RPMI) 1640 medium supplemented with 10% heat-inactivated fetal bovine serum, 2 mM L-glutamine, 1 mM sodium pyruvate and 100 mM HEPES. The MRC-5 cell line was cultured in Eagle’s Minimal Essential Medium (EMEM, Sigma-Aldrich, St. Louis, MO, USA) supplemented with a non-essential amino acid (NEAA) mixture (Sigma-Aldrich, St. Louis, MO, USA) a selection of vitamins, 10% heat-inactivated foetal bovine serum (FBS), 2 mM L-glutamine (Sigma-Aldrich, St. Louis, MO, USA), 1 mM Na-pyruvate (Sigma-Aldrich, St. Louis, MO, USA), nystatin (Sigma-Aldrich, St. Louis, MO, USA) and a penicillin-streptomycin mixture (Sigma-Aldrich, St. Louis, MO, USA) in concentrations of 100 U/L and 10 mg/L, respectively. The cells were incubated at 37 °C, in a 5% CO2, 95% air atmosphere. All cell lines were detached with Trypsin-Versene® (EDTA) solution for 5 min at 37 °C.
(§2) The tested compounds were dissolved in 90% (v/v) DMSO/H2O using 8 mM concentration, […] in the final samples the DMSO content was always lower than 1%. Then stock solutions were diluted in complete culture medium, and two-fold serial dilutions of compounds were prepared in 100 μL of the medium, horizontally. The semi-adherent colon adenocarcinoma cells were treated with Trypsin-Versene (EDTA) solution. They were adjusted to a density of 1 × 10^4 cells in 100 μL of RPMI 1640 or EMEM medium and were added to each well, with the exception of the medium control wells. The final volume of the wells containing compounds and cells was 200 μL. The plates containing Colo-205, Colo-320 or MRC-5 cells were incubated at 37 °C for 72 h; at the end of the incubation period, 20 μL of MTT solution (from a stock solution of 5 mg/mL) were added to each well. After incubation at 37 °C for 4 h, 100 μL of SDS solution (10% in 0.01 M HCI) were added to each well, and the plates were further incubated at 37 °C overnight. Cell growth was determined by measuring the optical density (OD) at 540/630 nm with a Multiskan EX plate reader (Thermo Labsystems, Cheshire, WA, USA). Inhibition of the cell growth (expressed as IC50: inhibitory concentration that reduces by 50% the growth of the cells exposed to the tested compounds) was determined from the sigmoid curve where 100 − ((ODsample − ODmedium control)/(ODcell control − ODmedium control)) × 100 values were plotted against the logarithm of compound concentrations. Curves were fitted by GraphPad Prism software (2021, Graphpad Software, San Diego, CA, USA) using the sigmoidal dose–response model (comparing variable and fixed slopes). The IC50 values were obtained from at least three independent experiments.

[2] = test system: Colo-320 (doxorubicin-resistant) human colon adenocarcinoma cells; experiment: MTT cytotoxicity test; format: cell-based; details: Homo sapiens, Colo-320, 72 h
Experimental: as §1, §2

[3] = test system: MRC-5 human embryonal lung fibroblast cells; experiment: MTT cytotoxicity test; format: cell-based; details: Homo sapiens, MRC5, MRC-5, 72 h
Experimental: as §1, §2

[4] = proton dissociation constants by UV-vis spectrophotometric titration; format: physicochemical; details: for pK2 (H2L+) / pK3 (HL): Pro-SISC-Me; for pK1 (H2L+) / pK2 (HL): SISC
Experimental: An Agilent Cary 8454 diode array spectrophotometer (Agilent Technologies, Santa Clara, CA, USA) was used to record the UV-vis spectra at an interval of 200–800 nm. The path length was 1 or 2 cm. Spectrophotometric titrations were performed in water or in 30% (v/v) DMSO/H2O on samples containing the ligands at 50 μM–1 mM concentration, in the pH range from 1.0 to 12.5 in the absence or in the presence of 1 or 0.5 or 0.33 equiv. metal ions. Ka values of the ligands and the UV-vis spectra of the individual species were calculated by the computer program PSEQUAD [45].

[5] = n-octanol/water distribution coefficient, shake-flask; format: physicochemical; details: n-octanol/buffered aqueous solution, pH 7.4; n-octanol/H2O, pH 7.40, 25 °C, 0.10 M KCl; read-out: logD7.4
Experimental: Distribution coefficients (D7.4) values were determined by the traditional shake-flask method in n-octanol/buffered aqueous solution at pH 7.40 (20 mM HEPES, 0.10 M KCl) at 25.0 ± 0.2 °C as described previously.

[6] = proton dissociation constants by pH-potentiometry; format: physicochemical; details: for pK1 (H3L2+) / pK2 (H2L+) / pK3 (HL): Pro-SISC-Me; for pK1 (H3L2+) / pK2 (H2L+) / pK3 (HL) / pK1 (H2L+) / pK2 (HL): pH-pot.; for fraction present as H2L+ at pH 7.4 / fraction present as HL at pH 7.4: based on the pKa values; for fraction present as HL at pH 7.4: HL neutral (zwitter ionic for Pro-SISC-Me); for pK1 (H2L+) / pK2 (HL): SISC
Experimental: The pH-potentiometric measurements for the determination of the proton dissociation constants of the ligands and the overall stability constants of the metal complexes were carried out at 25.0 ± 0.1 °C in water or in 30% (v/v) DMSO/H2O as solvent and at an ionic strength of 0.10 M (KCl). The titrations were performed with carbonate-free KOH solution of known concentration (0.10 M). The concentrations of the base and the HCl were determined by pH-potentiometric titrations. An Orion 710A pH-meter equipped with a Metrohm combined electrode (type 6.0234.100), and a Metrohm 665 Dosimat burette were used for the titrations. […] The average water ionization constant pKw was 13.76 ± 0.05 (water) or 14.52 ± 0.05 (30% (v/v) DMSO/H2O). The pH-potentiometric titrations were performed in the pH range 2.0–12.5. The initial volume of the samples was 10.0 mL. The ligand concentration was 2 mM and metal ion-to-ligand ratios of 1:1–1:3 were used. The accepted fitting of the titration curves was always less than 0.01 mL. Argon was always passed over the solutions during the titrations. The exact concentration of the ligand stock solutions together with the proton dissociation constants were determined by pH-potentiometric titrations with the use of the computer program HYPERQUAD [44]. It was also utilized to establish the stoichiometry of the complexes and to calculate the stability constants (β(MpLqHr)). β(MpLqHr) is defined for the general equilibrium pM + qL + rH ⇋ MpLqHr as β(MpLqHr) = [MpLqHr]/[M]^p[L]^q[H]^r, where M denotes the metal ion and L the completely deprotonated ligand. In all calculations exclusively, titration data were used from experiments in which no precipitate was visible in the reaction mixture.

Which results are given for `Cc1cc(C=NNC(=N)N)c(O)c(CN2CCCC2C(=O)O)c1` (stereo not drawn) [Pro-SISC-Me]?
IC50 [1]: > 80 µM; IC50 [2]: > 80 µM; IC50 [3]: > 80 µM; pK2 (H2L+) ([4]; 30% DMSO/H2O): 7.07 ± 0.03; pK3 (HL) ([4]; 30% DMSO/H2O): 9.84 ± 0.03; pK2 (H2L+) ([4]; H2O): 7.30 ± 0.03; pK3 (HL) ([4]; H2O): 9.67 ± 0.03; logD [5]: -0.88 ± 0.05; pK1 (H3L2+) ([6]; 30% DMSO/H2O): 1.80 ± 0.08; pK2 (H2L+) ([6]; 30% DMSO/H2O): 7.08 ± 0.02; pK3 (HL) ([6]; 30% DMSO/H2O): 9.91 ± 0.02; pK1 (H3L2+) ([6]; H2O, 25 °C, I = 0.10 M (KCl)): 2.52 ± 0.08; pK2 (H2L+) ([6]; H2O, 25 °C, I = 0.10 M (KCl)): 7.25 ± 0.06; pK3 (HL) ([6]; H2O, 25 °C, I = 0.10 M (KCl)): 9.61 ± 0.05; fraction present as H2L+ at pH 7.4 [6]: 33%; fraction present as HL at pH 7.4 [6]: 67%

For `N=C(N)NN=Cc1ccccc1O` [SISC, 2-(2-hydroxybenzylidene)hydrazinecarboximidamide], which IC50 [1] is on record?
The IC50 was greater than 80 µM.

What about the IC50 [2] of the same compound?
The IC50 was greater than 80 µM.

What about the IC50 [3] of the same compound?
The IC50 was greater than 80 µM.

And the “pK1 (H2L+)” value ([4]; 30% DMSO/H2O)?
The value was 7.56 ± 0.03.

And the “pK2 (HL)” value ([4]; 30% DMSO/H2O)?
The value was 10.67 ± 0.03.

And the “pK1 (H2L+)” value ([4]; H2O)?
Its value is 7.64 ± 0.03.

What about the “pK2 (HL)” value ([4]; H2O) of the same compound?
Its value is 10.12 ± 0.03.

And the logD [5]?
The logD was 0.83.

What about the “pK1 (H2L+)” value ([6]; 30% DMSO/H2O) of the same compound?
The value was 7.62 ± 0.03.

What about the “pK2 (HL)” value ([6]; 30% DMSO/H2O) of the same compound?
The value was 10.63 ± 0.02.

What about the “pK1 (H2L+)” value ([6]; H2O, 25 °C, I = 0.10 M (KCl)) of the same compound?
Its value is 7.64 ± 0.09.

And the “pK2 (HL)” value ([6]; H2O, 25 °C, I = 0.10 M (KCl))?
The value was 9.96 ± 0.09.

And the “fraction present as H2L+ at pH 7.4” value [6]?
The value was 64%.

What about the “fraction present as HL at pH 7.4” value [6] of the same compound?
The value was 36%.
